System: human retinal microvascular endothelial cells
Experiment: Angiogenesis-inhibiting signals (mRNA quantification by real-time quantitative PCR)
Format: cell-based
Conditions: various concentrations; for angiogenesis-inhibiting signals (changes of gene expression levels): four hours incubation, FIG. 6; for mRNA amount of c-myc, integrin-αv, integrin-β3: FIG. 6 legend
Protocol: Human retinal microvascular endothelial cells were rendered to grow exponentially in the presence of serum/growth factors/angiogenesis-promoting factors, and various concentrations of rifampicin, rifamycin SV and 3-formyl rifamycin were added. After four hours-incubation, RNA was extracted and subjected to mRNA quantification of various genes using aforementioned LightCycler-based highly sensitive real-time quantitative PCR. A, B and C represent the quantification results of c-myc gene; D, E and F represent those of integrin-αv gene; G, H and I represent those of integrin-β3 gene. Further, A, D and G indicate the changes of mRNA levels after adding rifampicin; B, E and H indicate those after adding rifamycin SV; C, F and I indicate those after adding 3-formyl rifamycin.

CO[C@H]1/C=C/O[C@@]2(C)Oc3c(C)c([O-])c4c(O)c(cc(O)c4c3C2=O)NC(=O)/C(C)=C\C=C\[C@H](C)[C@H](O)[C@@H](C)[C@@H](O)[C@@H](C)[C@H](OC(C)=O)[C@@H]1C.[Na+] [rifamycin SV]
angiogenesis-inhibiting signals (changes of gene expression levels): exhibit similar activity potently
mRNA amount of c-myc, integrin-αv, integrin-β3: inhibited in a concentration-dependent manner

CO[C@H]1/C=C/O[C@@]2(C)Oc3c(C)c(O)c4c(O)c(c(C=O)c(O)c4c3C2=O)NC(=O)/C(C)=C\C=C\[C@H](C)[C@H](O)[C@@H](C)[C@@H](O)[C@@H](C)[C@H](OC(C)=O)[C@@H]1C [3-formyl rifamycin]
angiogenesis-inhibiting signals (changes of gene expression levels): exhibit similar activity potently
mRNA amount of c-myc, integrin-αv, integrin-β3: inhibited in a concentration-dependent manner

From patent US9333194B2, “Use of ansamycin antibiotics and method of screening novel angiogenesis inhibitor” (Japan Science & Technology Agency, priority 2002, dated 2016)
